Source: the NIST ThermoML archive (doi:10.1021/acs.jced.5b00978)
“And” between values parts separate entries of the source, which are not always exact repeats. Identical values can stand only once. Numbers after ± are expanded uncertainties.

Legend:
[1] = for Normal melting temperature: DTA
[2] = Molar enthalpy of transition or fusion; settings: Crystal; DSC

CNc1ccc(C(=O)OC)cc1 [methyl p-(methylamino)benzoate]
[1]
Settings	vapor or sublimation pressure
317.09 K, Crystal, Calculated from knudsen effusion weight loss	7.8e-05 ± 2e-05 kPa
319.16 K, Crystal, Calculated from knudsen effusion weight loss	0.000101 ± 2e-05 kPa and 0.000103 ± 2e-05 kPa
321.19 K, Crystal, Calculated from knudsen effusion weight loss	0.000131 ± 2.1e-05 kPa and 0.00013 ± 2.1e-05 kPa
323.08 K, Crystal, Calculated from knudsen effusion weight loss	0.000167 ± 2.1e-05 kPa and 0.000165 ± 2.1e-05 kPa and 0.000168 ± 2.1e-05 kPa
325.15 K, Crystal, Calculated from knudsen effusion weight loss	0.000213 ± 2.1e-05 kPa and 0.000207 ± 2.1e-05 kPa and 0.000215 ± 2.1e-05 kPa
327.18 K, Crystal, Calculated from knudsen effusion weight loss	0.000263 ± 2.2e-05 kPa and 0.000266 ± 2.2e-05 kPa and 0.000271 ± 2.2e-05 kPa
329.12 K, Crystal, Calculated from knudsen effusion weight loss	0.000338 ± 2.3e-05 kPa and 0.000335 ± 2.3e-05 kPa and 0.000341 ± 2.3e-05 kPa
331.22 K, Crystal, Calculated from knudsen effusion weight loss	0.000427 ± 2.5e-05 kPa and 0.000425 ± 2.5e-05 kPa and 0.000433 ± 2.5e-05 kPa
332.9 K, Crystal, Closed cell (Static) method	0.00054 ± 0.00012 kPa
333.17 K, Crystal, Calculated from knudsen effusion weight loss	0.000537 ± 2.8e-05 kPa and 0.000535 ± 2.8e-05 kPa and 0.00054 ± 2.8e-05 kPa
334.88 K, Crystal, Closed cell (Static) method	0.00068 ± 0.00012 kPa
335.09 K, Crystal, Calculated from knudsen effusion weight loss	0.00068 ± 3.1e-05 kPa and 0.000688 ± 3.2e-05 kPa and 0.000691 ± 3.2e-05 kPa
336.87 K, Crystal, Closed cell (Static) method	0.00086 ± 0.00012 kPa
337.17 K, Crystal, Calculated from knudsen effusion weight loss	0.000869 ± 3.7e-05 kPa and 0.000862 ± 3.7e-05 kPa and 0.000855 ± 3.6e-05 kPa
338.87 K, Crystal, Closed cell (Static) method	0.00108 ± 0.00012 kPa
339.18 K, Crystal, Calculated from knudsen effusion weight loss	0.001064 ± 8.4e-05 kPa and 0.00106 ± 8.3e-05 kPa and 0.001061 ± 8.3e-05 kPa
340.85 K, Crystal, Closed cell (Static) method	0.00134 ± 0.00013 kPa
342.84 K, Crystal, Closed cell (Static) method	0.00167 ± 0.00013 kPa
344.81 K, Crystal, Closed cell (Static) method	0.00207 ± 0.00014 kPa
346.8 K, Crystal, Closed cell (Static) method	0.00257 ± 0.00016 kPa
348.77 K, Metastable liquid, Closed cell (Static) method	0.00482 ± 0.00022 kPa
348.79 K, Crystal, Closed cell (Static) method	0.00317 ± 0.00017 kPa
350.76 K, Metastable liquid, Closed cell (Static) method	0.0056 ± 0.00025 kPa
350.81 K, Crystal, Closed cell (Static) method	0.0039 ± 0.00019 kPa
352.75 K, Metastable liquid, Closed cell (Static) method	0.00655 ± 0.00028 kPa
352.76 K, Crystal, Closed cell (Static) method	0.00477 ± 0.00022 kPa
354.74 K, Crystal, Closed cell (Static) method	0.00575 ± 0.00026 kPa
354.74 K, Metastable liquid, Closed cell (Static) method	0.0076 ± 0.00032 kPa
356.72 K, Metastable liquid, Closed cell (Static) method	0.00876 ± 0.00036 kPa
356.73 K, Crystal, Closed cell (Static) method	0.00703 ± 0.0003 kPa
358.69 K, Metastable liquid, Closed cell (Static) method	0.01017 ± 0.00042 kPa
358.71 K, Crystal, Closed cell (Static) method	0.0085 ± 0.00035 kPa
360.67 K, Metastable liquid, Closed cell (Static) method	0.01173 ± 0.00047 kPa
360.69 K, Crystal, Closed cell (Static) method	0.01033 ± 0.00042 kPa
362.67 K, Metastable liquid, Closed cell (Static) method	0.01351 ± 0.00053 kPa
364.65 K, Metastable liquid, Closed cell (Static) method	0.01561 ± 0.00056 kPa
366.64 K, Metastable liquid, Closed cell (Static) method	0.01788 ± 0.00059 kPa
368.55 K, Closed cell (Static) method, Liquid	0.02015 ± 0.00063 kPa
370.6 K, Closed cell (Static) method, Liquid	0.02331 ± 0.00068 kPa
372.58 K, Closed cell (Static) method, Liquid	0.02669 ± 0.00073 kPa
374.55 K, Closed cell (Static) method, Liquid	0.03049 ± 0.00079 kPa
376.53 K, Closed cell (Static) method, Liquid	0.03459 ± 0.00085 kPa
378.5 K, Closed cell (Static) method, Liquid	0.03935 ± 0.00092 kPa
380.51 K, Closed cell (Static) method, Liquid	0.04446 ± 0.001 kPa
382.47 K, Closed cell (Static) method, Liquid	0.05044 ± 0.0011 kPa
384.46 K, Closed cell (Static) method, Liquid	0.05682 ± 0.0012 kPa
386.45 K, Closed cell (Static) method, Liquid	0.06435 ± 0.0013 kPa
388.41 K, Closed cell (Static) method, Liquid	0.07241 ± 0.0014 kPa
390.4 K, Closed cell (Static) method, Liquid	0.0815 ± 0.0016 kPa
392.35 K, Closed cell (Static) method, Liquid	0.09154 ± 0.0017 kPa

Settings	Normal melting temperature [°C]
[1], Crystal	93 ± 0.4

Settings	Molar enthalpy of transition or fusion [kcal/mol]
[2]	6.57 ± 0.143

COC(=O)c1ccc(C=O)cc1 [methyl 4-formylbenzoate]
[1]
Settings	vapor or sublimation pressure [kPa]
303.1 K, Crystal, Closed cell (Static) method	0.00069 ± 0.00011
305.04 K, Crystal, Closed cell (Static) method	0.00086 ± 0.00011
307.04 K, Crystal, Closed cell (Static) method	0.00109 ± 0.00012
309.04 K, Crystal, Closed cell (Static) method	0.00137 ± 0.00012
311.05 K, Crystal, Closed cell (Static) method	0.00173 ± 0.00013
313.01 K, Crystal, Closed cell (Static) method	0.00216 ± 0.00014
314.99 K, Crystal, Closed cell (Static) method	0.00268 ± 0.00015
317.07 K, Crystal, Closed cell (Static) method	0.00335 ± 0.00017
319.02 K, Crystal, Closed cell (Static) method	0.00412 ± 0.0002
321.01 K, Crystal, Closed cell (Static) method	0.00511 ± 0.00023
323.02 K, Crystal, Closed cell (Static) method	0.00635 ± 0.00027
324.99 K, Crystal, Closed cell (Static) method	0.0078 ± 0.00033
326.93 K, Metastable liquid, Closed cell (Static) method	0.01165 ± 0.00047
326.97 K, Crystal, Closed cell (Static) method	0.00965 ± 0.00039
328.93 K, Metastable liquid, Closed cell (Static) method	0.01357 ± 0.00052
328.97 K, Crystal, Closed cell (Static) method	0.01165 ± 0.00047
330.9 K, Metastable liquid, Closed cell (Static) method	0.01573 ± 0.00056
330.92 K, Crystal, Closed cell (Static) method	0.01405 ± 0.00053
332.84 K, Metastable liquid, Closed cell (Static) method	0.01823 ± 0.0006
334.84 K, Metastable liquid, Closed cell (Static) method	0.02122 ± 0.00064
336.84 K, Closed cell (Static) method, Liquid	0.02458 ± 0.00069
338.85 K, Closed cell (Static) method, Liquid	0.02803 ± 0.00075
340.8 K, Closed cell (Static) method, Liquid	0.03252 ± 0.00082
342.76 K, Closed cell (Static) method, Liquid	0.0371 ± 0.00089
344.76 K, Closed cell (Static) method, Liquid	0.04283 ± 0.00097
346.67 K, Closed cell (Static) method, Liquid	0.04856 ± 0.0011
348.71 K, Closed cell (Static) method, Liquid	0.05584 ± 0.0012
350.65 K, Closed cell (Static) method, Liquid	0.06347 ± 0.0013
352.66 K, Closed cell (Static) method, Liquid	0.07223 ± 0.0014
354.52 K, Closed cell (Static) method, Liquid	0.08123 ± 0.0016
356.6 K, Closed cell (Static) method, Liquid	0.09314 ± 0.0018
358.58 K, Closed cell (Static) method, Liquid	0.1051 ± 0.0019
360.55 K, Closed cell (Static) method, Liquid	0.1182 ± 0.0021
362.49 K, Closed cell (Static) method, Liquid	0.1338 ± 0.0021
364.51 K, Closed cell (Static) method, Liquid	0.1519 ± 0.0022
366.47 K, Closed cell (Static) method, Liquid	0.1698 ± 0.0023
368.46 K, Closed cell (Static) method, Liquid	0.1902 ± 0.0025
370.41 K, Closed cell (Static) method, Liquid	0.2138 ± 0.0027
372.39 K, Closed cell (Static) method, Liquid	0.2395 ± 0.0029
374.28 K, Closed cell (Static) method, Liquid	0.2657 ± 0.0031
376.36 K, Closed cell (Static) method, Liquid	0.298 ± 0.0034
378.24 K, Closed cell (Static) method, Liquid	0.3306 ± 0.0037
380.3 K, Closed cell (Static) method, Liquid	0.3693 ± 0.004
382.21 K, Closed cell (Static) method, Liquid	0.4085 ± 0.0043
384.22 K, Closed cell (Static) method, Liquid	0.4558 ± 0.0048
386.18 K, Closed cell (Static) method, Liquid	0.5028 ± 0.0052
388.17 K, Closed cell (Static) method, Liquid	0.562 ± 0.0057

Settings	Normal melting temperature [°C]
[1], Crystal	62.1 ± 0.5

Settings	Molar enthalpy of transition or fusion [kcal/mol]
[2]	5.11 ± 0.12
